Source: patent US20070060605A1, “Compositions and methods for inhibiting platelet activation and thrombosis” (priority 2001, published 2007)
Read-outs that look alike come from different tables or passages of the source.

Assays:
platelets = experiment: Agonist-induced platelet granule secretion / activation (P-selectin expression by flow cytometry; ADP/ATP release); format: cell-based, human; details: for IC50: Homo sapiens, Platelet
Method: In order to monitor ATP release, a cocktail of 100 μM SFLLR (synthesized using solid phase Fmoc chemistry on an Applied Biosystems model 430A peptide synthesizer) and 3 mg/ml of luciferin/luciferase (Sigma, St. Louis, Mo.) in a volume of 10 μl is added to 20 μl of PRP. Samples are immediately analyzed for luminescence. Activated platelets supply the ATP necessary for luminescence of the luciferin/luciferase assay. Assays can be performed at high throughput through use of a microtiter plate system, e.g., 384-well plates and a Multidrop 384 (Thermo Labsystems, Helsinki), read with a high density imaging system, e.g., the Tundra system (Imaging Research, St. Catherine's, Ontario).
In order to assay platelet activation by cell surface marker expression, fresh PRP is isolated from donors who have not ingested aspirin for two weeks prior to donation. PRP (40 μl) is incubated with known or suspected inhibitor in DMSO or DMSO alone for 15 min. The sample is then incubated with the indicated agonist (e.g., SFLLR) for 10 min. Following incubation of the sample with the indicated agonist, 10 μl of reaction mixture is transferred to 5 μl of phycoerythrin (PE)-conjugated AC 1.2 anti-P-selectin antibody (for assessment of P-selectin surface expression) or fluorescein isothiocyanate (FITC)-conjugated PAC-1 antibody (for assessment of GPIIbIIIa activation). PBS (500 μl) is added to the sample after a 20 min incubation and the platelets are analyzed immediately by flow cytometry. Flow cytometry can be performed using, for example, a Becton-Dickinson FACSCalibur flow cytometer or its equivalent. Fluorescent channels are set at logarithmic gain. Ten thousand particles are acquired for each sample. A 530/30 band pass filter is used for FL-1 fluorescence. A 585/42 band pass filter is used for FL-2 fluorescence. FITC is measured in the FL-1 channel and PE is measured in the FL-2 channel. Data are analyzed using, for example, CellQuest software on a Macintosh PowerPC, or their equivalents.
Compounds were tested for the ability to inhibit agonist-induced ADP/ATP release from platelet dense granules using a luciferin-luciferase reporter system. In this assay, compounds were incubated with platelet-rich plasma (PRP) for 30 min. A cocktail of the platelet agonist and luciferin-luciferase was then added to the wells. Plates were immediately analyzed using a Tundra high density luminescence imager. […] As a control, compounds were also screened in a platelet-free assay for the ability to inhibit luciferin-luciferase upon exposure to ATP.
Each of the compounds was tested for inhibition of platelet activation in response to the agonists SFLLR (a thrombin mimic), U46619 (a thromboxane A2 mimic), ADP and the phorbol ester PMA.
Compounds were also tested by flow cytometry for the inhibition of SFLLR-induced GPIIbIIIa activation and P-selectin expression. In these experiments, freshly obtained PRP was prepared from healthy volunteers who had not ingested aspirin for two weeks prior to donation. Forty μl of PRP was incubated with inhibitor in DMSO or DMSO alone for 15 min. The sample was then incubated with the indicated agonist for 10 min. Following incubation of the sample with the indicated agonist, 10 μl of reaction mixture was transferred to 5 μl of PE-conjugated AC1.2 anti-P-selectin antibody (for assessment of P-selectin surface expression) or FITC-conjugated PAC-1 antibody (for assessment of GPIIbIIIa activation). PBS (500 μl) was added to the sample after a 20 min incubation and the platelets were analyzed immediately by flow cytometry. Flow cytometry was performed using a Becton-Dickinson FACSCalibur flow cytometer. Fluorescent channels were set at logarithmic gain. Ten thousand particles were acquired for each sample. A 530/30 band pass filter was used for FL-1 fluorescence. A 585/42 band pass filter was used for FL-2 fluorescence. FITC was measured in the FL-1 channel and PE was measured in the FL-2 channel.

[1] = tested on: platelet accumulation into thrombus; format: in vivo
Source text: A preferred animal model involves intravital microscopy of laser-induced thrombi. The method is described by Rosen et al., 2001, Am J Pathol 158, 1613-1622, which is incorporated herein by reference. Minor variations of that method were employed as described below.
Experimental mice are pre-anesthetized and surgically prepared. A tracheal tube is placed to facilitate breathing and the jugular vein is canulated to allow for maintenance of anesthetic and introduction of compound. The cremaster muscle is then exteriorized. The muscle is affixed over a glass slide, allowing illumination from below. A steady drip of a sodium-bicarbonate buffered salt solution is maintained throughout the experiment to keep the exposed muscle moist. Blood flow in the muscle is visualized using a 40× water immersion lens and epi-illuminated with an appropriately filtered light source. Alexa 488-labeled anti-mouse CD41 antibody is injected through the jugular canulus to label platelets in vivo.
Thrombosis is initiated by damaging the vessel wall (of a 30 μm vessel) with a laser pulse from a MicroPoint LASER attached to the microscope. A LASER pulse is delivered, causing damage in an area smaller than 1 μm. The recruitment of platelets to the thrombus is then monitored by the accumulation of (activated) Alexa 488-labeled platelets at the ablation site using fluorescence microscopy, and the process is recorded digitally. The method thus permits in vivo analysis of platelet activation as measured by platelet aggregation and thrombosis.
The degree of embolization in an untreated mouse can be quantified using software for image analysis, e.g., BioQuant True Color Windows (Biometrics, Nashville, Tenn.), as described in Rosen et al., 2001, supra. The software package permits the determination of the “integrated optical density” or IOD of the thrombus.
Using quantitative intravital fluorescence videomicroscopy with high temporal resolution (111 images/second), the effect of PDE3 inhibition on the platelet recruitment into thrombi was directly observed over time. Platelets were fluorescently labeled by infusing rat-anti-mouse CD41 and Alexa 488-anti-rat IgG through a cannulated jugular vein. The cremaster microvasculature was exposed and mapped and suitable arteriole segments were selected for laser-induced injury. A series of control injuries were generated prior to infusion of the inhibitory compound. The power and the number of laser pulses required to generate each thrombus was recorded. Platelet accumulation to the thrombi following laser ablation was recorded using digital videomicroscopy. The thrombus total fluorescence in each frame of the videos was analyzed using Slidebook software for digital videomicroscopy. The pyridazinone compound was then infused. Following a 15 minute incubation, a series of experimental injuries were generated 250 μm proximal, with relationship to blood flow, of the first injury and the resultant thrombi were recorded. The power and the number of pulses required to induce the control thrombus was used to induce the experimental thrombus. The control and experimental thrombi constituting a pair were compared for statistical analysis. The total fluorescence intensity of the thrombi before and after the infusion of pyridazinone compound was recorded.
Images from a representative experiment of the recruitment of fluorescently-labeled […] platelets into a growing thrombus over time is shown in FIG. 9A.

## CCCCCn1c2c(c(=N)c3ccccc31)CCC2 [JF081204{5C}]
platelets
  U46619-, A23187-, and PMA-induced P-selectin expression less potent than SFLLR: at least 150 fold
platelets; agonist A23187, read-out: IC50 P-Selectin Expression Induced by A23187
  IC50: > 300 µM
platelets; agonist PMA, read-out: IC50 P-Selectin Expression Induced by PMA
  IC50: 300 µM
platelets; agonist SFLLRN, maximally stimulatory dose, read-out: IC50 P-Selectin Expression Induced by SFLLRN
  IC50: 2 µM
platelets; agonist SFLLRN/SFLLR, human platelets, read-out: IC50 SFLLRN-induced P-selectin expression, flow cytometry
  IC50: 2 to 150 µM
platelets; agonist U46619, read-out: IC50 P-Selectin Expression Induced by U46619
  IC50: 400 µM
platelets; footnote, sentence cut off
  Potency in inhibiting SFLLRLN- and epinephrine-induced activation relative to other agonists: #inhibit platelet activation induced by the indicated agonist is shown. The potency of this compound in inhibiting SFLLRLN- and epinephrine-induced activation was at least 100-fold greater than that o
[1]; 1 mg/kg (P<0.001), 3 mg/kg (P<0.05), 6 mg/kg (P<0.001)
  Time for thrombus to achieve 50% maximum platelet accumulation / onset of platelet accumulation: statistically significant delay
[1]; 1 mg/kg, 3 mg/kg, and 6 mg/kg
  Platelet accumulation over stages of thrombus formation: inhibited at all stages
[1]; 3 mg/kg (P<0.002) and 6 mg/kg (P<0.02)
  Median of maximum platelet accumulation compared to absence of compound: statistically significant decrease
[1]; 3 mg/kg (P<0.01) and 6 mg/kg (P<0.001)
  Median stabilized platelet accumulation: dose-dependent inhibition
[1]; dose-dependent, 1-6 mg/kg
  Inhibition of maximum platelet accumulation: up to 80%
[1]; dose-dependent, 5 minutes following laser injury
  Inhibition of stabilized platelet accumulation: up to 75%

## CC1CC(=O)NN=C1c1ccc(N)c([N+](=O)[O-])c1 (stereo not drawn) [6-(4-Amino-3-nitro-phenyl)-5-methyl-4,5-dihydro-2H-pyridazin-3-one]
platelets
  ADP- and collagen-induced granule release less potent than SFLLR and U46619: at least 25 fold
platelets; ADP vs SFLLR and U46619
  ADP-induced responses inhibited less effectively than SFLLR and U46619 responses: approximately 20 fold
platelets; agonist ADP, read-out: IC50s of inhibition of platelet granule secretion induced with ADP
  IC50: 8 µM
platelets; agonists SFLLR and U-46619, read-out: IC50 SFLLR- and U-46619-induced activation
  IC50: 0.3 µM
platelets; agonist Collagen, read-out: IC50 collagen-induced platelet granule release
  IC50: 70 µM
platelets; agonist PMA
  Inhibition of PMA-induced platelet activation: did not inhibit
platelets; agonist PMA, up to 1000 μM
  Inhibition of PMA-induced activation: No inhibition
[1]; 0.3 mg/kg
  Inhibition of maximal rate of platelet recruitment: 37%
  Median Stabilized/Maximum platelet accumulation: 36%
[1]; 0.6 mg/kg
  Inhibition of maximum platelet accumulation: 61%
  Median Stabilized/Maximum platelet accumulation: 41%
[1]; 0.6 mg/kg (P<0.05) and 1.2 mg/kg (P<0.01)
  Stabilized platelet accumulation: dose-dependent inhibition
[1]; 0.6 mg/kg and 1.2 mg/kg (P<0.05)
  Maximum platelet accumulation compared to absence of compound: statistically significant decrease
[1]; 0.6 mg/kg, 300 seconds after laser injury
  Inhibition of stabilized platelet accumulation: 54%
[1]; 1.2 mg/kg
  Inhibition of maximal rate of platelet recruitment: 56%
  Inhibition of maximum platelet accumulation: 56%
  Median Stabilized/Maximum platelet accumulation: 33%
[1]; 1.2 mg/kg, 300 seconds after laser injury
  Inhibition of stabilized platelet accumulation: 72%
[1]; 1.2 mg/kg, p<0.04
  Median total thromboembolization, % of the maximum platelet accumulation of control thrombi: 1.0%
[1]; after infusion of 1.2 mg/kg
  Thromboembolization: significantly reduced
[1]; after injection, laser-induced thrombus
  Reduction of embolization: greater than 80%
[1]; laser-induced thrombosis, P<0.01
  Inhibition of thrombus formation: 72%
[1]; same mouse model, dose not stated
  Thromboembolization: inhibited
